For orientation: melting point means the temperature, or range, at which the solid turns liquid.

Consider `COc1cc(C)c(C(=O)c2cnccc2C(F)(F)F)c(OC)c1OC` [compound No. 7, 3-(2,3,4-trimethoxy-6-methylbenzoyl)-4-trifluoromethylpyridine], for which the melting point was in the range of 59 to 62 °C.

Regarding `COc1cc(C)c(C(=O)c2c(OC)cnc(Cl)c2C(F)(F)F)c(OC)c1OC` [compound No. 123, 4-(2,3,4-trimethoxy-6-methylbenzoyl)-2-chloro-3-trifluoromethyl-5-methoxypyridine], the melting point was in the range of 117 to 119 °C.

Compound `COc1cc(C)c(C(=O)c2c(OC)cnc(Br)c2C(F)(F)F)c(OC)c1OC` [compound No. 124, 4-(2,3,4-trimethoxy-6-methylbenzoyl)-2-bromo-3-trifluoromethyl-5-methoxypyridine] yielded a melting point of 145 to 147 °C.

In turn, `COc1cc(C)c(C(=O)c2c(OC)cnc(Cl)c2Cl)c(OC)c1OC` [compound No. 193, 4-(2,3,4-trimethoxy-6-methylbenzoyl)-2,3-dichloro-5-methoxypyridine] showed a melting point of 98 to 99 °C.

For the compound `COc1cc(C)c(C(=O)c2c(Cl)cncc2Cl)c(OC)c1OC` [compound No. 191, 4-(2,3,4-trimethoxy-6-methylbenzoyl)-3,5-dichloropyridine], the melting point was 109 to 111 °C.

For the compound `COc1cc(C)c(C(=O)c2c(Cl)cnc(Cl)c2Cl)c(OC)c1OC` [compound No. 186, 4-(2,3,4-trimethoxy-6-methylbenzoyl)-2,3,5-trichloropyridine], the melting point was in the range of 60 to 61 °C.

For `COc1cc(C)c(C(=O)c2c(OC)cncc2C(F)(F)F)c(OC)c1OC` [compound No. 122, 4-(2,3,4-trimethoxy-6-methylbenzoyl)-3-methoxy-5-trifluoromethylpyridine], the melting point was 103 to 106 °C.

Turning to `COc1cc(C)c(C(=O)c2c(Cl)cnc(Cl)c2C(F)(F)F)c(OC)c1OC` [compound No. 90, 4-(2,3,4-trimethoxy-6-methylbenzoyl)-2,5-dichloro-3-trifluoromethylpyridine], the melting point fell in the range of 106 to 109 °C.

As for `COc1cc(C)c(C(=O)c2c(OC)cnc(Br)c2Cl)c(OC)c1OC` [compound No. 245, 4-(2,3,4-trimethoxy-6-methylbenzoyl)-2bromo-3-chloro-5-methoxypyridine], the melting point is 97 to 99 °C.

Compound `COc1cc(C)c(C(=O)c2c(C(F)(F)F)ccnc2OC)cc1OC` [compound No. 32, 3-(4,5-dimethoxy-2-methylbenzoyl)-2-methoxy-4-trifluoromethylpyridine] registered a melting point of 125 to 127 °C.

With `COc1cc(C)c(C(=O)c2c(C(F)(F)F)ccnc2Cl)c(OC)c1OC` [compound No. 11, 3-(2,3,4-trimethoxy-6-methylbenzoyl)-2-chloro-4-trifluoromethylpyridine], the melting point is 110 to 112 °C.

The compound `COc1cc(C)c(C(=O)c2c(Cl)cncc2C(F)(F)F)c(OC)c1OC` [compound No. 102, 4-(2,3,4-trimethoxy-6-methylbenzoyl)-3-chloro-5-trifluoromethylpyridine] returned a melting point of 75 to 77 °C.

In turn, `COc1cc(C)c(C(=O)c2c(C)cncc2Br)c(OC)c1OC` [compound No. 228, 4-(2,3,4-trimethoxy-6-methylbenzoyl)-3-bromo-5-methylpyridine] registered a melting point of 88 to 93 °C.

For `COc1cc(C)c(C(=O)c2c(Cl)nc(Cl)c(C(C)=O)c2C(F)(F)F)c(OC)c1OC` [compound No. 62, 5-(2,3,4-trimethoxy-6-methylbenzoyl)-3-acetyl-2,6-dichloro-4-trifluoromethylpyridine], the melting point lay in the range of 109 to 112 °C.

As to `COc1cc(C)c(C(=O)c2c(C(F)(F)F)cc(Cl)nc2Cl)c(OC)c1OC` [compound No. 3, 3-(2,3,4-trimethoxy-6-methylbenzoyl)-2,6-dichloro-4-trifluoromethylpyridine], the melting point lay within 81 to 83 °C.

In turn, `COc1cc(C)c(C(=O)c2c(C(F)(F)F)ccnc2Cl)cc1OCc1ccccc1` [compound No. 27, 3-(5-benzyloxy-4-methoxy-2-methylbenzoyl)-2-chloro-4-trifluoromethylpyridine] displayed a melting point of 116 to 117 °C.

These data come from patent US20030216444A1, “Benzoylpyridine derivative or its salt, fungicide containing it as an active ingredient, its production process and intermediate for producing it” (priority 2000, published 2003).
